According to article PMC9147390, “Evaluation of TILI-2 as an Anti-Tyrosinase, Anti-Oxidative Agent and Its Role in Preventing Melanogenesis Using a Proteomics Approach” (Molecules, 2022):
No end group written: not given here.

What was measured:
[1] = ABTS radical scavenging assay; conditions: 0 to 50 µM, 6 min, room temperature
Experimental: The ABTS radical scavenging assay was performed with slight modifications of the protocol reported by Re et al.. Briefly, ABTS^+ was generated by the incubation of 7 mM ABTS with 2.45 mM potassium persulfate for 16 h at room temperature. Next, the ABTS radical solution was diluted until the absorbance at 734 nm was 0.7. The diluted ABTS radical solution (100 µL) was mixed with TILI-2 (final concentration 0–200 µM, 10 µL) and incubated at room temperature for 6 min. After that, the absorbance at 734 nm was measured using a SpectraMax M5 plate reader (Molecular Devices, Sunnyvale, CA, USA). The percentage of ABTS radical inhibition was calculated using the equation below: ABTS radical inhibition %=1−A734 sample/A734 control×100 where A734 sample and A734 control are the absorbance at 734 nm of the reaction with and without peptide.
(§1) The data were represented as mean ± SD (n = 3). An ANOVA test according to Duncan (p < 0.05) was used for each comparison (IBM SPSS Statistics 20).

[2] = DPPH radical scavenging assay; conditions: 0 to 200 µM, 30 min, room temperature, dark
Experimental: The DPPH radical scavenging assay was performed with slight modifications of the protocol reported by Jandaruang et al.. Briefly, a DPPH radical solution (0.1 mM, 100 µL) was mixed with TILI-2 (final concentration 0–200 µM, 10 µL) and incubated at room temperature in the dark for 30 min. Then, the reaction was monitored by measuring the absorbance of 515 nm using a SpectraMax M5 plate reader (Molecular Devices, Sunnyvale, CA, USA). DPPH radical inhibition (%) was calculated using the equation below: DPPH radical inhibition %=1−A515 sample/A515 control×100 where A515 sample and A515 control are the absorbance at 515 nm of the reaction with and without peptide.
as §1

[3] = system: human keratinocyte (HaCaT); conditions: new results consistent with previous reports; cited from earlier work
[4] = system: NHDF cells; test: Cell viability assay (MTT), fibroblasts; format: cell-based, human; conditions: 24 h
Experimental: (§2) Fibroblast cells (NHDF) and B16F1 cells were purchased from the American Type Culture Collection (ATCC, Manassas, VA, USA) and cells were cultured in DMEM supplemented with 10% heat-inactivated FBS, 1% penicillin-streptomycin solution, and 5% L-glutamine. RAW 264.7 cells were purchased from the American Type Culture Collection (ATCC, Manassas, VA, USA) and cells were cultured in RPMI supplemented with 10% heat-inactivated FBS and 1% penicillin-streptomycin solution. These cells were cultured at 37 °C in a 5% CO2 and 90% relative humidity incubator. Cell viability assay was performed using slight modifications of the protocol described by Phosri et al.. Briefly, fibroblast cells (NHDF) (8000 cells/well) and RAW 264.7 cells (25,000 cells/well) were seeded onto a 96-well plate and allowed to recover overnight. Then, the cells were incubated with different concentrations of peptides (final concentration of 0–1400 µM, 100 µL). After 24 h incubation, the culture medium was removed, and MTT was added (0.5% w/v, 100 µL). After incubation for a further 30 min at 37 °C, DMSO was added and the absorbance at 570 nm was measured. The cell viability was calculated using the equation below: Cell viability %=A570 sample/A570 control×100 where A570 sample and A570 control are the absorbance of cells with and without the peptide treatment. The data were represented as mean ± SD (n = 3). […]

[5] = system: mouse melanoma (B16F1) cells; conditions: B16F1, 350 µM; cited from earlier work
[6] = system: RAW 264.7 cells; test: Cell viability assay (MTT), macrophages; format: cell-based; conditions: 24 h
Experimental: as §2

[7] = system: mouse B16 melanomas; conditions: cited from earlier work
Text: Bioactive peptides are a promising group of depigmenting agents because they are derived from natural sources and therefore display low cytotoxicity.

[8] = target: T1, mushroom tyrosinase (mushroom, UniProt C7FF04 1-392); test: enzyme inhibition kinetics (Lineweaver-Burk plot and secondary plot); monophenolase activity of mushroom tyrosinase, L-tyrosine 0.10-0.80 mM, TILI-2 0-300 µM, 50 mM phosphate buffer pH 6.8, 25 °C, absorbance at 475 nm; Ki from slope versus TILI-2 concentration; conditions: both partners purified
T1 construct: mushroom tyrosinase, EC 1.14.18.1, commercial preparation; The commercial preparation may hold several tyrosinase isoforms and other proteins; also called monophenol monooxygenase, EC 1.14.18.1; source: bought: Sigma Aldrich
T1 sequence (C7FF04 1-392): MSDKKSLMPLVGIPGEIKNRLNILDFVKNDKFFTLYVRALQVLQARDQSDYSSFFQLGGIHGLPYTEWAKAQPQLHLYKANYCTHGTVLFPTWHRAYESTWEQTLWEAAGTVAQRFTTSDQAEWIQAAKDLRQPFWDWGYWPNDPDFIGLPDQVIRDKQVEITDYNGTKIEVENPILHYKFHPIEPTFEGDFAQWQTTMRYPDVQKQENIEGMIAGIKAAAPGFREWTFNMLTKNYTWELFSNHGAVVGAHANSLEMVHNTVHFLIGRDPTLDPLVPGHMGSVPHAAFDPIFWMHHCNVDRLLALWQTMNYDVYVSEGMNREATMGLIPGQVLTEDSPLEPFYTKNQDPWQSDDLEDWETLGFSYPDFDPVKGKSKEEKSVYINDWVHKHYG

[9] = target: T1, mushroom tyrosinase; test: cell-based or functional assay

For `O=C1O[C@H]([C@@H](O)CO)C(O)=C1O` [Ascorbic acid, L-Ascorbic acid], the “ABTS radical scavenging (range over concentrations)” value ([1]; 734 nm) was 11.64–82.68%, the IC50 ([1]; absorbance 734 nm, mean ± SD, n = 3) was 15.9 ± 0.16 µM and the “DPPH radical scavenging (range over concentrations)” value ([2]; 515 nm) was 13.79–82.63%. For the same molecule, the IC50 ([2]; absorbance 515 nm, mean ± SD, n = 3) was 40.09 ± 0.21 µM.

For CNGVQPK [TILI-2], the “cytotoxicity (in words)” value [3] is listed as “not toxic”, the Cell viability ([4]; 1400 µM) is listed as 99.65 ± 1.31% and the “cytotoxicity (in words)” value ([4]; NHDF, 0 to 1400 µM, MTT) is listed as “not toxic”. The “cytotoxicity (in words)” value [5] was “non-toxic”, the Cell viability ([6]; 1400 µM) was 105.41 ± 5.42% and the “cytotoxicity (in words)” value ([6]; RAW 264.7, 0 to 1400 µM, MTT) was “not toxic”.

In the case of “LQPSHY [CT-2, CT-2 (LQPSHY), a C-terminus tyrosine peptide derived from rice bran]”, the “melanogenesis (in words)” value [7] is listed as “repressed melanogenesis”.

B1: Tyrosinase Inhibitor Leucrocin I-2 (TILI-2) (peptide)
peptide: CNGVQPK
notes: N-terminal cysteine-containing heptapeptide, a peptide derivative from Leucrocin I; source: synthetic peptide (GL Biochem Ltd., Fmoc solid-phase synthesis, purity more than 95%)
With B1 the Ki [8] was 273 µM and the “IC50 of inhibition of tyrosinase monophenolase activity (L-tyrosine as substrate, A475)” value [9] was 583 µM.
